Laboratory results from US12186289B2, “Compositions for feeding a pregnant animal” (Nutreco IP Assets B.V., priority 2018, dated 2025).

Test system: sows
Experiment: Example 1: top dress with a single ingredient fed to pregnant sows from day 80 of gestation to parturition; colostrum intake and gain of litters
Assay type: in vivo, pigs
Details: for Total colostrum intake per litter / Average daily gain to day 7, kg per litter: corrected for litter size, sorbic acid 5 g; for Total colostrum intake per litter: 100 g/day top dress, day 80 of gestation up to parturition, betaine 3 g daily, estimated by Theil et al. algorithm; for Average daily gain to day 7, kg per litter: betaine 3 g daily in 100 g top dress

SMILES | Average daily gain to day 7 compared to the control (in words) | Colostrum intake per litter compared to the control (in words) | Total colostrum intake per litter | Average daily gain to day 7, kg per litter
CC=CC=CC(=O)O [Sorbic acid, 2,4-hexadienoic acid] | same result as the control | slightly lower | 6227 g | 18.2 kg per litter
C[N+](C)(C)CC(=O)[O-] [Betaine, trimethylglycine] | negative effect | substantially lower | 5784 g | 16.1 kg per litter
